Columns and labels:
[1] = tested on: alloxan-treated adult zebrafish; assay: Blood glucose level in alloxan-treated adult zebrafish; format: in vivo
Protocol: Wild-type adult zebrafish were treated for 1 hour with 2 mg/ml alloxan and then for 1 hour with 1% glucose in the absence of insulin. Subsequently, the reaction solution was exchanged with water in which the zebrafish were then left for 1 hour before treatment with HdP, metformin, or BAPTA-AM for 90 min. Thus, the experiment groups included a non-treated group, an alloxan-treated group (control), a group treated with alloxan and HdP (0.3 μg/g body weight), a group treated with alloxan and metformin (5 μg/g body weight), a group treated with alloxan and BAPTA-AM (3 μg/g body weight), and a group treated with alloxan, BAPTA-AM (3 μg/g body weight), and HdP (0.3 μg/g body weight).

zebrafish embryos [2] = assay: HdP toxicity in zebrafish embryo; format: in vivo; conditions: 1 μg/ml or less HdP, exposed until 168 hours after fertilization
Protocol: Four days after fertilization, each of the embryos (n=15) was transferred to 12-well plates, each containing 950 μl of an embryo medium (distilled water containing 60 ppm salt) and 50 μl of HdP (0.01, 0.1, 1, and 10 μg/ml) and the viability of zebrafish embryos exposed to HdP for 168 hours after fertilization were measured.

[3] = tested on: differentiated myoblast C2C12 cells; assay: Glucose uptake of C2C12 cells, 2-NBDG flow cytometry (FACS); format: cell-based, mouse; conditions: treated with HdP for 24 hours, 2-NBDG fluorescence, dose-dependent
Protocol: The mouse-derived myoblast C2C12 cells (ATCC, Manassas, Va., USA) were suspended in DMEM (Dulbecco's Modified Eagle's Media) medium supplemented with 10% FBS and an antibiotic and cultured at 37° C. under a 5% CO2 atmosphere in an incubator. Upon 80% confluency, the C2C12 cells subjected to differentiation in a DMEM medium containing 2% horse serum and a low concentration of glucose for 5 days, with the medium freshly changed every three days. The differentiated cells were serum starved for 12 hours in serum free DMEM containing a low concentration of glucose, washed with PBS, and then reacted for 24 hours with the sample (HdP) in a fresh serum free DMEM.
Glucose uptake of mouse-derived myoblast C2C12 cells was measured using flow cytometry (FACS) according to the (2-(N-(7-nitrobenz-2oxa-1,3-diazol-4-yl)amino)-2-deoxyglucose (2-NBDG) assay method (Cell Death Dis. 2017 Oct. 5. 8 (10):e3078). The cultured cells were incubated with 10 μM 2-NBDG at 37° C. for 24 hours and then analyzed using BD FACS Cantoll (BD Biosciences, NJ, USA), with the fluorescence of 2-NBDG detected in a FITC channel.

yeast α-glucosidase = assay: Inhibitory activity against α-glucosidase; format: biochemical; conditions: yeast enzyme, PNP-G substrate, pH 7.0, 37° C.; read-out: IC50 (concentration necessary for inhibiting the activity of α-glucosidase by 50%)
Protocol: Inhibitory activity against α-glucosidase was evaluated using a yeast enzyme according to the method of Watanabe et al. (Watanabe, Kawabata, Kurihara, & Niki, 1997). In the reaction condition of pH 7.0 and 37° C., 5 mM p-nitrophenyl α-D-glucopyranoside (PNP-G) serving as a substrate was reacted with a dilution of 32 mU/ml enzyme (yeast α-glucosidase, Sigma) in 100 mM phosphate buffer and inhibitory activity was measured using spectrophotometry. The sample was reacted with PNP-G for 5 min and the absorbance of 4-nitrophenol released upon the hydrolysis of PNP-G was read at 405 nm. Subsequently, the same amount of the substrate solution was added and reacted at room temperature for an additional five min., after which the reaction was stopped by adding 0.5 M Na2CO3. A change in absorbance at 405 nm was measured.
Inhibitory activity (%) against α-glucosidase was calculated according to the formula (1-absorbance of sample-added group/absorbance of solvent-added group)×100).
Acabose, which is an oral hypoglycemic agent inhibitory of α-glucosidase, was used as a positive control.

zebrafish embryos [4] = assay: Intracellular calcium level in zebrafish embryo using Fluo-4; format: in vivo
Protocol: Intracellular calcium levels of zebrafish embryos were measured using a calcium-sensitive Fluo-4 probe. Embryos were incubated with Fluo-4 at 28.5±1° C. for 30 min before treatment with HdP (0.6, 3, and 6 μg/ml). In order to block the entry of calcium into cells, the embryos were reacted with the calcium chelator BAPTA-AM 0.1 mM for 1 hour before incubation with Fluo-4. The experiment groups included a non-treated group (N), a group treated with Fluo-4 alone (F), a group treated with HdP alone (0.6, 3, and 6 μg/ml), a group treated with Fluo-4 and HdP (0.6, 3, and 6 μg/ml), and a group treated with Fluo-4, BAPTA-AM, and HdP (6 μg/ml).

Row | Compound | blood glucose level ([1]; HdP 0.3 μg/g body weight, 90 min) | blood glucose level, HdP plus BAPTA-AM versus alloxan plus BAPTA-AM ([1]; HdP 0.3 μg/g with BAPTA-AM 3 μg/g body weight) | survival rate of zebrafish embryos (zebrafish embryos [2]) | glucose uptake into differentiated C2C12 cells [3] | IC50 (yeast α-glucosidase) | intracellular Ca2+ level (Fluo-4 phosphorescence) with calcium chelator BAPTA-AM (zebrafish embryos [4]; Fluo-4, BAPTA-AM 0.1 mM and HdP 6 μg/ml) | intracellular Ca2+ level (Fluo-4 phosphorescence) (zebrafish embryos [4]; HdP 0.6, 3 and 6 μg/ml with Fluo-4, versus group treated with Fluo-4 alone) | blood glucose level (effect compared with HdP) ([1]; metformin 5 μg/g body weight, 90 min)
1 | Oc1cc(O)cc(Oc2cc(O)c(Oc3c(O)cc(O)cc3Oc3cc(O)c(Oc4cc(O)cc(O)c4Oc4cc(O)cc(O)c4Oc4cc(O)cc(O)c4Oc4cc(O)c(Oc5c(O)cc(O)cc5Oc5c(O)cc(Oc6c(O)cc(Oc7c(O)cc(Oc8c(O)cc(Oc9c(O)cc(Oc%10c(O)cc(Oc%11c(O)cc(O)cc%11O)cc%10O)cc9O)cc8O)cc7O)cc6O)cc5O)c(O)c4)c(O)c3)c(O)c2)c1 [HdP, hexadecaphlorethol] | significantly reduced | No significant differences | ≥ 90% | significantly increase | 55 µM | phosphorescence decrease | significant increase | –
2 | CN(C)C(=N)N=C(N)N [metformin, reference compound] | – | – | – | – | – | – | – | similar

Reference: patent US10961176B2, “Compound hexadecaphlorethol isolated from Ishige okamurae and use thereof” (Jeju National University Industry-Academic Cooperation …, priority 2018, dated 2021)
